Source: patent US20200361895A1, “NOVEL SULFONAMIDE CARBOXAMIDE COMPOUNDS” (Inflazome Limited, priority 2017, published 2020)
Structures can show the parent of a compound that is named as a salt.

Legend:
NLRP3 [1] = target: T1, NLRP3 (Homo sapiens, UniProt Q96P20); assay: Human whole blood IL1β release assay (LPS + nigericin, AlphaLisa IL-1β; HWB IC50); format: cell-based; parameters: Human whole blood in Li-heparin tubes was obtained from healthy donors from a volunteer donor panel; from tissue; host or cells: human whole blood from healthy donors; details: IL-1β release
Procedure, shortened: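 IL-1β in plasma supernatant quantified by AlphaLisa after nigericin (10 μM final, 1 h, 37 °C) triggering of human whole blood that had been preincubated 3 h with LPS (1 μg/ml) plus compound (half-log, 8 points, from 10 μM). IC50 by variable-slope four-parameter regression.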

NLRP3 [2] = target: T1, NLRP3; assay: THP-1 cells pyroptosis assay (LPS + nigericin, resazurin readout; THP IC50); format: cell-based; parameters: Seed THP-1 cells (25,000 cells/well) containing 1.0 μg/ml LPS in 40 μl of RPMI medium; host or cells: THP-1 cells
Procedure, shortened: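 IC50 from 4-parameter fit of resazurin fluorescence (100 μM, 1-2 hrs), reflecting surviving cells after pyroptosis. LPS-primed (1 μg/ml) THP-1 cells in FBS-free RPMI got compound for 3 hrs at 37° C (top 10 μM, half-log, 8 points), then nigericin 5 μM for 1 hr.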

T1 sequence (Q96P20 whole entry): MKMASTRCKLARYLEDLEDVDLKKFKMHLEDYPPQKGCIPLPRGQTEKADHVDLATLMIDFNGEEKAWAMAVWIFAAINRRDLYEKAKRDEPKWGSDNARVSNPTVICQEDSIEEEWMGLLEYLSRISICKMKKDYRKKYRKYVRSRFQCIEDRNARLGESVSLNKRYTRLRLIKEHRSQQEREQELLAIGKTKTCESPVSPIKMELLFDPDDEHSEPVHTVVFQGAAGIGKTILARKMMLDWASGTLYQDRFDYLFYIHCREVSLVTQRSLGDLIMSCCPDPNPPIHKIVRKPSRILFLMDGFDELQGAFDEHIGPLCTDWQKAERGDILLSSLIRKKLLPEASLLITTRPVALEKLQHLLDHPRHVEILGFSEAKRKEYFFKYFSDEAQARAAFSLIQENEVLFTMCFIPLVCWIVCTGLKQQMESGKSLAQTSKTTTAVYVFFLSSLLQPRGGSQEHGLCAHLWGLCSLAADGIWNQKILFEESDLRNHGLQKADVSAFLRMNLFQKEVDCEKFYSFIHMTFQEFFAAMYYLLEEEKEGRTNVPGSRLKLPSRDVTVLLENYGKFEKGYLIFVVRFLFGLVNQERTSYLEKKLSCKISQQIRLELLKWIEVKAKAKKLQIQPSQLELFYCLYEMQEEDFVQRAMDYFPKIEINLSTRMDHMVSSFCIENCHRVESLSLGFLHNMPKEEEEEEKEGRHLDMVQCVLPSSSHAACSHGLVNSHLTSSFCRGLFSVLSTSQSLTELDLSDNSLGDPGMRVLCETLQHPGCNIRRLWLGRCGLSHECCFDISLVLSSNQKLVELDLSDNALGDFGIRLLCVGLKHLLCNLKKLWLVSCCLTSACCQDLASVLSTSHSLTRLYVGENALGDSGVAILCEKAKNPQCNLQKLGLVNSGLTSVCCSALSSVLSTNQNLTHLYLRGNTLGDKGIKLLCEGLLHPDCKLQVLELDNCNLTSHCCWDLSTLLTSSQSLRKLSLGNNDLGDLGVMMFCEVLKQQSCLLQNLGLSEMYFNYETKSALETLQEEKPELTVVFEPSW

SMILES | IC50 (NLRP3 [1]) [nM] | IC50 (NLRP3 [2]) [nM]
COCCOc1cc(-c2ccc3c(c2NC(=O)NS(=O)(=O)c2ccn(C(C)C)n2)CCC3)ccn1 [Example 300, 1-Isopropyl-N-((5-(2-(2-methoxyethoxy)pyridin-4-yl)-2,3-dihydro-1H-inden-4-yl)carbamoyl)-1H-pyrazole-3-sulfonamide, sodium salt] | ≤ 1000 | ≤ 500
COc1cc(-c2ccc3c(c2NC(=O)NS(=O)(=O)c2ccc(C(=O)N(C)C)cc2)CCC3)ccn1 [Example 308, 4-(N-((5-(2Mmethoxypyridin-4-yl)-2,3-dihydro-1H-inden-4-yl)carbamoyl)sulfamoyl)-N,N-dimethylbenzamide, sodium salt] | ≤ 1000 | ≤ 500
[2H]C([2H])([2H])Oc1cc(-c2ccc3c(c2NC(=O)NS(=O)(=O)c2ccc(CN(C)C)cc2)CCC3)ccn1 [Example 310, 4-((Dimethylamino)methyl)-N-((5-(2-(methoxy-d3)pyridin-4-yl)-2,3-dihydro-1H-inden-4-yl)carbamoyl)benzenesulfonamide] | ≤ 500 | ≤ 500
COc1cc(-c2ccc3c(c2NC(=O)NS(=O)(=O)c2ccc(CN(C)C)cc2)CCO3)ccn1 [Example 311, 4-((Dimethylamino)methyl)-N-((5-(2-methoxypyridin-4-yl)-2,3-dihydrobenzofuran-4-yl)carbamoyl)benzenesulfonamide] | ≤ 500 | ≤ 500
COc1cc(-c2ccc3c(c2NC(=O)NS(=O)(=O)c2ccn(C4(CN5CCC5)CCC4)n2)CCC3)ccn1 [Example 312, 1-(1-(Azetidin-1-ylmethyl)cyclobutyl)-N-((5-(2-methoxypyridin-4-yl)-2,3-dihydro-1H-inden-4-yl)carbamoyl)-1H-pyrazole-3-sulfonamide] | ≤ 500 | ≤ 500
COc1cc(-c2ccc3c(c2NC(=O)NS(=O)(=O)c2ccc(CN(C)C)c(C4CC4)c2)CCC3)ccn1 [Example 313, 3-Cyclopropyl-4-((dimethylamino)methyl)-N-((5-(2-methoxypyridin-4-yl)-2,3-dihydro-1H-inden-4-yl)carbamoyl)benzenesulfonamide] | ≤ 500 | ≤ 500
COc1cc(-c2c(C)cc3c(c2NC(=O)NS(=O)(=O)c2ccn(C4CC4)n2)CCC3)ccn1 [Example 314, 1-Cyclopropyl-N-((5-(2-methoxypyridin-4-yl)-6-methyl-2,3-dihydro-1H-inden-4-yl)carbamoyl)-1H-pyrazole-3-sulfonamide] | ≤ 1000 | ≤ 500
CN1CCC(N(C)S(=O)(=O)NC(=O)Nc2c(-c3ccnc(C#N)c3)ccc3c2CCC3)C1 (stereo not drawn) [Example 317, 3-(N-Methyl-N-(1-methylpyrrolidin-3-yl)sulfamoyl)-1-(5-(2-cyanopyridin-4-yl)-2,3-dihydro-1H-inden-4-yl)urea] | ≤ 500 | ≤ 500
CN1CCC2CN(S(=O)(=O)NC(=O)Nc3c(-c4ccnc(C#N)c4)ccc4c3CCC4)CC21 (stereo not drawn) [Example 318, N-((5-(2-Cyanopyridin-4-yl)-2,3-dihydro-1H-inden-4-yl)carbamoyl)-1-methylhexahydropyrrolo[3,4-b]pyrrole-5(1H)-sulfonamide] | ≤ 500 | ≤ 1000
COc1cc(-c2ccc3c(c2NC(=O)NS(=O)(=O)N2CC4CCN(C)C4C2)CCC3)ccn1 (stereo not drawn) [Example 320, N-((5-(2-Methoxypyridin-4-yl)-2,3-dihydro-1H-inden-4-yl)carbamoyl)-1-methylhexahydropyrrolo[3,4-b]pyrrole-5(1H)-sulfonamide, potassium salt] | ≤ 500 | ≤ 500
CN1CCCC1CN(C)S(=O)(=O)NC(=O)Nc1c(-c2ccnc(C#N)c2)ccc2c1CCC2 (stereo not drawn) [Example 321, 3-(N-Methyl-N-((1-methylpyrrolidin-2-yl)methyl)sulfamoyl)-1-(5-(2-cyanopyridin-4-yl)-2,3-dihydro-1H-inden-4-yl)urea] | ≤ 500 | ≤ 1000
CC(C)(O)c1coc(S(=O)(=O)NC(=O)Nc2c3c(nn2-c2ccncc2)CCC3)c1 [Example 323, 4-(2-Hydroxypropan-2-yl)-N-((2-(pyridin-4-yl)-2,4,5,6-tetrahydrocyclopenta[c]pyrazol-3-yl)carbamoyl)furan-2-sulfonamide] | ≤ 500 | ≤ 5000

More lines, now with the values ahead:

IC50 (NLRP3 [1]) [nM] | IC50 (NLRP3 [2]) [nM] | SMILES
≤ 500 | ≤ 500 | CC(C)n1ccc(S(=O)(=O)NC(=O)Nc2c(-c3ccnc(OCCO)c3)ccc3c2CCC3)n1 [Example 299, N-((5-(2-(2-Hydroxyethoxy)pyridin-4-yl)-2,3-dihydro-1H-inden-4-yl)carbamoyl)-1-isopropyl-1H-pyrazole-3-sulfonamide]
≤ 500 | ≤ 500 | O=C(Nc1c(-c2ccncc2)ccc2c1CCC2)NS(=O)(=O)c1ccn(C2CC2)n1 [Example 303, 1-Cyclopropyl-N-((5-(pyridin-4-yl)-2,3-dihydro-1H-inden-4-yl)carbamoyl)-1H-pyrazole-3-sulfonamide]
≤ 500 | ≤ 500 | O=C(Nc1c(-c2ccncc2)ccc2c1CCC2)NS(=O)(=O)c1ccn(C2CCC2)n1 [Example 304, 1-Cyclobutyl-N-((5-(pyridin-4-yl)-2,3-dihydro-1H-inden-4-yl)carbamoyl)-1H-pyrazole-3-sulfonamide]
≤ 500 | ≤ 500 | COc1cc(-c2ccc3c(c2NC(=O)NS(=O)(=O)c2nn(C4CC4)cc2F)CCC3)ccn1 [Example 305, 1-Cyclopropyl-4-fluoro-N-((5-(2-methoxypyridin-4-yl)-2,3-dihydro-1H-inden-4-yl)carbamoyl)-1H-pyrazole-3-sulfonamide]
≤ 500 | ≤ 500 | COc1cc(-c2ccc3c(c2NC(=O)NS(=O)(=O)c2ccn(C(C)(C)CN4CC(F)(F)C4)n2)CCC3)ccn1 [Example 306, 1-(1-(3,3-Difluoroazetidin-1-yl)-2-methylpropan-2-yl)-N-((5-(2-methoxypyridin-4-yl)-2,3-dihydro-1H-inden-4-yl)carbamoyl)-1H-pyrazole-3-sulfonamide]
≤ 500 | ≤ 500 | COc1cc(-c2ccc3c(c2NC(=O)NS(=O)(=O)c2ccn(C(C)(C)CN4CC(F)C4)n2)CCO3)ccn1 [Example 307, 1-(1-(3-Fluoroazetidin-1-yl)-2-methylpropan-2-yl)-N-((5-(2-methoxypyridin-4-yl)-2,3-dihydrobenzofuran-4-yl)carbamoyl)-1H-pyrazole-3-sulfonamide]
